The subject of one assay is Colletotrichum capsici. Description: Colletotrichum capsici (Anthracnose) radial growth on potato dextrose agar. The class given is cell-based. To be noted: Colletotrichum truncatum, 168 h, radial growth after seven days compared to untreated control.
The next assay deals with Phakopsora pachyrhizi. Kind of assay: Phakopsora pachyrhizi Test in Soybean (preventive spray). The class given is in vivo. To be noted: preventive spray on Soybean plants, inoculated one day after treatment, disease severity vs untreated control.
In the next assay the test system is Botrytis cinerea. Description: Botrytis cinerea (Gray Mold) radial growth on potato dextrose agar. The class given is cell-based. The note with it: 300 ppm; radial growth after seven days compared to untreated control.
Another assay concerns Pyricularia oryzae. Kind of assay: microbe, parasite or virus in culture. The note with it: 168 h, read-out: control. The class given is cell-based.
A further assay relates to Alternaria solani. Description: Alternaria solani (Early Blight of Tomato/Potato) radial growth on potato dextrose agar. The class given is cell-based. The note with it: 168 h, radial growth after seven days compared to untreated control.
For the next assay, the system named is Fusarium culmorum. Kind of assay: Fusarium culmorum (Foot Rot of Cereals) radial growth on potato dextrose agar. The class given is cell-based. To be noted: 300 ppm; radial growth after seven days compared to untreated control. How it is done: Example 6: Fusarium culmorum (Foot Rot of Cereals)
Compounds were dissolved in 0.3% dimethyl sulfoxide and then added to potato dextrose agar medium just prior to dispensing it into petri dishes. 5 mL medium with the compound in the desired concentration was dispensed into 60 mm sterile petri-plates. After solidification each plate was seeded with a 5 mm size mycelial disc taken from the periphery of an actively growing virulent culture plate. Plates were incubated in growth chambers at 25° C. temperature and 60% relative humidity for seven days and then the radial growth was measured and compared to that of the untreated control.

Structures are written as SMILES. A value given as a limit tells only on which side of the number the result lay.

On to `O=C(COc1cc(Cl)cc(Cl)c1)c1ccc(-c2noc(C(F)(F)F)n2)cc1` [Compound 15, 2-(3,5-dichlorophenoxy)-1-(4-(5-(trifluoromethyl)-1,2,4-oxadiazol-3-yl)phenyl)ethan-1-one], for which the inhibition of growth at 300 ppm in the assay with Colletotrichum capsici is at least 70%. This compound returned a pest or weed control at 500 ppm in the assay with Phakopsora pachyrhizi of at least 70%.
As for `O=C(COc1ccccc1F)c1ccc(-c2noc(C(F)(F)F)n2)cn1` [Compound 114, 2-(2-fluorophenoxy)-1-(5-(5-(trifluoromethyl)-1,2,4-oxadiazol-3-yl)pyridin-2-yl)ethan-1-one], in the assay with Botrytis cinerea, the control is recorded as at least 70%. In addition, the inhibition of growth at 300 ppm in the assay on Pyricularia oryzae is at least 70%.
As for `CN1CCN(CC(=O)c2ccc(-c3noc(C(F)(F)F)n3)cc2)CC1` [Compound 135, 2-(4-methylpiperazin-1-yl)-1-(4-(5-(trifluoromethyl)-1,2,4-oxadiazol-3-yl)phenyl)ethan-1-one], the inhibition of growth at 300 ppm with Colletotrichum capsici and with Alternaria solani was at least 70% throughout. Moreover, the pest or weed control at 500 ppm in the assay with Phakopsora pachyrhizi was at least 70%.
The compound `O=C(CNc1ccc(Cl)c(C(F)(F)F)c1)c1ccc(-c2noc(C(F)(F)F)n2)cc1` [Compound 140, 2-((4-chloro-3-(trifluoromethyl)phenyl)amino)-1-(4-(5-(trifluoromethyl)-1,2,4-oxadiazol-3-yl)phenyl)ethan-1-one] came in with a control with Fusarium culmorum of at least 70%. Moreover, in the assay with Alternaria solani, the inhibition of growth at 300 ppm was at least 70%.
With `COc1ccc(NCC(=O)c2ccc(-c3noc(C(F)(F)F)n3)cc2)cc1` [Compound 145, 2-((4-methoxyphenyl)amino)-1-(4-(5-(trifluoromethyl)-1,2,4-oxadiazol-3-yl)phenyl)ethan-1-one], the inhibition of growth at 300 ppm in the assay on Colletotrichum capsici and in the assay with Pyricularia oryzae was at least 70% each time.
Take `Cc1ccccc1NCC(=O)c1ccc(-c2noc(C(F)(F)F)n2)cc1` [Compound 146, 2-(o-tolylamino)-1-(4-(5-(trifluoromethyl)-1,2,4-oxadiazol-3-yl)phenyl)ethan-1-one]: in the assay with Colletotrichum capsici, the inhibition of growth at 300 ppm is at least 70%.
`O=C(CSc1ncn[nH]1)c1ccc(-c2noc(C(F)(F)F)n2)cc1` [Compound 149, 2-((1H-1,2,4-triazol-5-yl)thio)-1-(4-(5-(trifluoromethyl)-1,2,4-oxadiazol-3-yl)phenyl)ethan-1-one]: the inhibition of growth at 300 ppm with Colletotrichum capsici, in the assay on Pyricularia oryzae and in the assay with Alternaria solani was at least 70% each time.

The record behind these values is patent US12677832B2, “Oxadiazole compounds for controlling or preventing phytopathogenic fungi” (PI INDUSTRIES LTD., priority 2019, dated 2026).
